From PMC11435058, “Synthesis of New Thiazole-Privileged Chalcones as Tubulin Polymerization Inhibitors with Potential Anticancer Activities” (Pharmaceuticals, 2024)

Experiments:
[1] = system: tubulin; assay: In vitro tubulin polymerization inhibition assay; type: biochemical; conditions: 4 mg/mL tubulin, 37°C, absorbance at 340 nm
Experimental: 4.2.2. In Vitro Tubulin Polymerization Inhibition Assay.
2p, and the reference drug CD -4) with the microtubule system. Specifically, the in vitro inhibition of tubulin polymerization was evaluated for these compounds. The standard tubulin polymerization reaction was carried out, containing 100 μL of 4 mg/mL tubulin in a buffer solution of 80 mM PIPES (pH 6.9), 0.5 mM EGTA, 2 mM MgCl2, and 1 mM GTP. Polymerization was initiated by incubating the reaction […]
Under these conditions, polymerization typically reaches a maximum absorbance of […]
growth, and steady state. In this experimental set up, an absorbance of 0.1 at 340 nm corresponds to approximately 1 mg/mL of polymerized tubulin, meaning that around […]
40% of the tubulin is polymerized, allowing for the detection of both enhancers and inhibitors of polymerization. The inhibitory effect of each compound on tubulin polymerization was quantified by determining the IC50 values, which were reported as the mean ± standard deviation from three independent experiments. […]

[2] = system: EKVX; assay: NCI-60 anticancer screen (SRB; single dose and five doses); conditions: Homo sapiens
[3] = system: COLO 205; assay: as above; conditions: Homo sapiens
[4] = system: HCC-2998; assay: as above
[5] = system: HT29; assay: as above; conditions: Homo sapiens
[6] = system: SNB-75; assay: as above
[7] = system: SK-MEL-28; assay: as above; conditions: Homo sapiens
[8] = system: UACC-62; assay: as above; conditions: Homo sapiens
[9] = system: IGROV1; assay: as above; conditions: Homo sapiens
[10] = system: OVCAR-4; assay: as above; conditions: Homo sapiens
[11] = system: OVCAR-5; assay: as above; conditions: Homo sapiens
[12] = system: SK-OV-3; assay: as above; conditions: Homo sapiens
[13] = system: 786-0; assay: as above; conditions: Homo sapiens
[14] = system: CAKI-1; assay: as above; conditions: Homo sapiens
[15] = system: TK-10; assay: as above; conditions: Homo sapiens
[16] = system: UO-31; assay: as above; conditions: Homo sapiens
[17] = system: DU-145; assay: as above; conditions: Homo sapiens
[18] = system: HS 578T; assay: as above; conditions: Homo sapiens
[19] = system: BT-549; assay: as above; conditions: Homo sapiens
[20] = system: T-47D; assay: as above; conditions: Homo sapiens, T47D
[21] = system: HT-29; parameters: method as in doi:10.1080/00397911.2021.1884262; conditions: HT-29 colorectal cancer cells; cited from earlier work
[22] = system: HCT-116; parameters: method as in doi:10.1080/00397911.2021.1884262; conditions: HCT-116 colorectal cancer cells; cited from earlier work
[23] = system: Lovo; parameters: method as in doi:10.1080/00397911.2021.1884262; conditions: Lovo colorectal cancer cells; cited from earlier work

`COc1ccc(/C=C\c2cc(OC)c(OC)c(OC)c2)cc1O` [CA-4, Combretastatin-A4, reference compound] showed an IC50 [1] of […], an IC50 ([1]; listed as Combretastatin-A4 (CA-4)) of […] and a GI50 [2] of 360 nM. It also gave a CC50 ([2]; read-out: LC50) of over 100 µM, an IC (TGI) ([2]; read-out: TGI) of 82 µM and a GI50 ([3]; COLO 205) of 2490 nM. The CC50 ([3]; COLO 205, read-out: LC50) was over 100 µM, the IC (TGI) ([3]; COLO 205, read-out: TGI) was 43.2 µM and the GI50 ([4]; Homo sapiens, HCC 2998) was 50 nM. For the same molecule, the CC50 ([4]; Homo sapiens, HCC 2998, read-out: LC50) was 26.9 µM, the TGI ([4]; five-dose, Colon Cancer HCC-2998) was 1.22 µM and the GI50 ([5]; HT-29) was 660 nM. The CC50 ([5]; HT-29, read-out: LC50) was 38.7 µM, the IC (TGI) ([5]; HT-29, read-out: TGI) was 5.51 µM and the GI50 ([6]; Homo sapiens, SNB-75) was 830 nM. The CC50 ([6]; Homo sapiens, SNB-75, read-out: LC50) was 82.4 µM, the TGI ([6]; five-dose, CNS Cancer SNB-75) was 24.72 µM and the GI50 ([7]; SK-MEL-28) was 3.16 µM. The CC50 ([7]; SK-MEL-28, read-out: LC50) was 90.8 µM, the IC (TGI) ([7]; SK-MEL-28, read-out: TGI) was 82.4 µM and the GI50 ([8]; UACC-62) was 10 nM. The IC (TGI) ([8]; UACC-62, read-out: TGI) was 80.5 µM, the GI50 ([9]; IGROV-1) was 60 nM and the CC50 ([9]; IGROV-1, read-out: LC50) was over 100 µM. For the same molecule, the IC (TGI) ([9]; IGROV-1, read-out: TGI) was 63.5 µM, the GI50 ([10]; OVCAR-4) was 260 nM and the CC50 ([10]; OVCAR-4, read-out: LC50) was 20.2 µM. For the same molecule, the IC (TGI) ([10]; OVCAR-4, read-out: TGI) was 0.16 µM, the GI50 ([11]; OVCAR-5) was 180 nM and the CC50 ([11]; OVCAR-5, read-out: LC50) was over 100 µM. It also gave an IC (TGI) ([11]; OVCAR-5, read-out: TGI) of 83.2 µM, a GI50 ([12]; SK-OV-3) of 28.4 µM and a CC50 ([12]; SK-OV-3, read-out: LC50) of 89.5 µM. The IC (TGI) ([12]; SK-OV-3, read-out: TGI) was 0.36 µM, the GI50 ([13]; 786-0) was 20 nM and the CC50 ([13]; 786-0, read-out: LC50) was over 100 µM. The IC (TGI) ([13]; 786-0, read-out: TGI) was over 100 µM, the GI50 ([14]; CAKI-1) was 40 nM and the CC50 ([14]; CAKI-1, read-out: LC50) was 97 µM. It also gave an IC (TGI) ([14]; CAKI-1, read-out: TGI) of 8.22 µM, a GI50 ([15]; TK-10) of 570 nM and a CC50 ([15]; TK-10, read-out: LC50) of over 100 µM. It also gave an IC (TGI) ([15]; TK-10, read-out: TGI) of 11.5 µM, a GI50 ([16]; UO-31) of 190 nM and an IC (TGI) ([16]; UO-31, read-out: TGI) of 4.16 µM. The GI50 ([17]; DU-145) was 10 nM, the CC50 ([17]; DU-145, read-out: LC50) was over 100 µM and the IC (TGI) ([17]; DU-145, read-out: TGI) was 78.9 µM. For the same molecule, the GI50 [18] was 150 nM, the CC50 ([18]; read-out: LC50) was over 100 µM and the IC (TGI) ([18]; read-out: TGI) was 0.22 µM. For the same molecule, the GI50 ([19]; BT-549) was 10 nM, the IC (TGI) ([19]; BT-549, read-out: TGI) was 8.09 µM and the GI50 [20] was 48 µM. For the same molecule, the CC50 ([20]; read-out: LC50) was over 100 µM and the IC (TGI) ([20]; read-out: TGI) was 2.04 µM.

For `Cc1nc(-c2ccc(C(F)(F)F)cc2)sc1C(=O)/C=C/c1ccc(C(=O)O)cc1` [V], the IC50 [21] is listed as 7.94 µM, the IC50 [22] is listed as 3.12 µM and the IC50 [23] is listed as 2210 nM.
